This is an account of results in ChEMBL document CHEMBL1201862, “PubChem BioAssay data set” (2004).

As a reminder, the AC50 is the midpoint of the concentration-response curve, whichever way the signal moves.

Activity calls are given as the source filed them. A value given as a limit tells only on which side of the number the result lay.

For one test, the system named is INS1. The test is described as follows: INS-1E survival protection against cytokine death – cell-based, luminescence, retest, dose response (AID 449756).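 Further: cell death triggered by IL-1 beta plus TNF-alpha plus IFN-gamma mixture; protective hits raise ATP signal compared with cytokine alone wells.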 Format: functional. Conditions: Rattus norvegicus.
The nature of test [1]: NIH-3T3 fibroblast cytotoxicity, dose response, cytotoxicity control, cell-based, fluorescence, Alamar Blue, secondary assay (AID 2327).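 Further: NIH-3T3 mouse fibroblasts cultured with fluconazole at 8 µg/mL.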 The test is classed as functional.
Test [2] can be described thus: fluconazole-exposed Candida albicans growth modulators – fluorescence, retest, confirmation (AID 2467). The test is classed as functional, cell-based.
Another test in a line: cells. The test is classed as functional.
Test [3] addresses T1, Carboxy-terminal domain RNA polymerase II polypeptide A small phosphatase 1 (Homo sapiens, UniProt Q9GZU7).
T1 sequence (Q9GZU7 whole entry): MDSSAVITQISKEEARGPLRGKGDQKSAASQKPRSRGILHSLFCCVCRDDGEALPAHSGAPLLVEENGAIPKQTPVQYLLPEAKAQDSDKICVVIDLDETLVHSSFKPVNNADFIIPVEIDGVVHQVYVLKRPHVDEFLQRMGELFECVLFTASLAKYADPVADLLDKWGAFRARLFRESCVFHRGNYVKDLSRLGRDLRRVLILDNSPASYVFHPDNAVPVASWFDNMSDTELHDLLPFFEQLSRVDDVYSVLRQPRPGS
The test is described as follows: CTDSP1 inhibitors, concentration-response, biochemical, absorbance readout, ultra-high-throughput screen actives (AID 540297). Format: functional.

The target of another test is T2, Caspase-3 (Homo sapiens, UniProt P42574).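 Further: Dose-response selectivity test against caspase-3 for candidate inhibitors of sentrin-specific proteases (SENPs).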
T2 sequence (P42574 whole entry): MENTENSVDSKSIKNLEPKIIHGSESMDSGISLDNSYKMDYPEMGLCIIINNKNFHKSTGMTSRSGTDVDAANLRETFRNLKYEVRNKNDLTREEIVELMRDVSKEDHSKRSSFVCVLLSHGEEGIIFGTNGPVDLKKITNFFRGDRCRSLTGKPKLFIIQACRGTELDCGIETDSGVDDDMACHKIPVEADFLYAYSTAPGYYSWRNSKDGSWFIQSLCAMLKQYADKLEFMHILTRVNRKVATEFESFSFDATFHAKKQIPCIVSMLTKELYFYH
The test is classed as functional.

The target in test [4] is T3, Sentrin-specific protease 7 (Homo sapiens, UniProt Q9BQF6).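 Further: Luminescence-based dose-response confirmation of ultra-high-throughput screening hits, measuring inhibition of SENP7.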
T3 sequence (Q9BQF6 whole entry): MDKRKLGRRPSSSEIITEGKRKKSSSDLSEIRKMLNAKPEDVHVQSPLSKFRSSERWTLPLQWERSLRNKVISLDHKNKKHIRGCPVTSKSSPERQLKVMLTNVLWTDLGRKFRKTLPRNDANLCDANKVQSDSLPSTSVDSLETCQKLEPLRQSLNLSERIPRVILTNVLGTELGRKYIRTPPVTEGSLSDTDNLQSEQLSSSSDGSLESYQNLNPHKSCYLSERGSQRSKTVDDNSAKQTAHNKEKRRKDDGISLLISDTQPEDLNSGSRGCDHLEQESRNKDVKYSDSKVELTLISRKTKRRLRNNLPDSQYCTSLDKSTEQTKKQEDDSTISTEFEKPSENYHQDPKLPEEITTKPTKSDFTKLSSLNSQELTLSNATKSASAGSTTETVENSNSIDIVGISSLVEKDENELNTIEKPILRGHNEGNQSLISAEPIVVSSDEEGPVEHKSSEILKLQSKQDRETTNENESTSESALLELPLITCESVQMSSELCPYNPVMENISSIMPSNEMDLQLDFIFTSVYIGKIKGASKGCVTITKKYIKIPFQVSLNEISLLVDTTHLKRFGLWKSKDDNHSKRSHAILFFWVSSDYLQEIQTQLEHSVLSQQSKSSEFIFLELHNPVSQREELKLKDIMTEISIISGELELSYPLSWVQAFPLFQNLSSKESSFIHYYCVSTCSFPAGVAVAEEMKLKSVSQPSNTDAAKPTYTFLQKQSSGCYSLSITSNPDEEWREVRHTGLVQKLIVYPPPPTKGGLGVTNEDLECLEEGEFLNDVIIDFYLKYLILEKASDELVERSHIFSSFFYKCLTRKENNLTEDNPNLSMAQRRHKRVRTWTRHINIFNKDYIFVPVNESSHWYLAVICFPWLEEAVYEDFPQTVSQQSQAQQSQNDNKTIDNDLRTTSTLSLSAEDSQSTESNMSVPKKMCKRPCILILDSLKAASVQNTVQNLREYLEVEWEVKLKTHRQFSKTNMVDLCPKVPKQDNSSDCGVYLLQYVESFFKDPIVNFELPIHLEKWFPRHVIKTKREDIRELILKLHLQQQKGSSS
Format: functional.

Test [5] deals with T4, Sentrin-specific protease 8 (Homo sapiens, UniProt Q96LD8).
T4 sequence (Q96LD8 whole entry): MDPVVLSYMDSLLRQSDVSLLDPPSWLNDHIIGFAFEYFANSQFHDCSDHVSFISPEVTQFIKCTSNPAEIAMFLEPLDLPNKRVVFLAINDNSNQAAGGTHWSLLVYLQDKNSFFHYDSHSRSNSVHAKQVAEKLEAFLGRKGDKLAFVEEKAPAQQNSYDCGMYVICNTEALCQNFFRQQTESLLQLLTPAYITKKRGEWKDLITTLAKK
The test is classed as functional.

Test [6] addresses T5, Sentrin-specific protease 6 (Homo sapiens, UniProt Q9GZR1).
T5 sequence (Q9GZR1 whole entry): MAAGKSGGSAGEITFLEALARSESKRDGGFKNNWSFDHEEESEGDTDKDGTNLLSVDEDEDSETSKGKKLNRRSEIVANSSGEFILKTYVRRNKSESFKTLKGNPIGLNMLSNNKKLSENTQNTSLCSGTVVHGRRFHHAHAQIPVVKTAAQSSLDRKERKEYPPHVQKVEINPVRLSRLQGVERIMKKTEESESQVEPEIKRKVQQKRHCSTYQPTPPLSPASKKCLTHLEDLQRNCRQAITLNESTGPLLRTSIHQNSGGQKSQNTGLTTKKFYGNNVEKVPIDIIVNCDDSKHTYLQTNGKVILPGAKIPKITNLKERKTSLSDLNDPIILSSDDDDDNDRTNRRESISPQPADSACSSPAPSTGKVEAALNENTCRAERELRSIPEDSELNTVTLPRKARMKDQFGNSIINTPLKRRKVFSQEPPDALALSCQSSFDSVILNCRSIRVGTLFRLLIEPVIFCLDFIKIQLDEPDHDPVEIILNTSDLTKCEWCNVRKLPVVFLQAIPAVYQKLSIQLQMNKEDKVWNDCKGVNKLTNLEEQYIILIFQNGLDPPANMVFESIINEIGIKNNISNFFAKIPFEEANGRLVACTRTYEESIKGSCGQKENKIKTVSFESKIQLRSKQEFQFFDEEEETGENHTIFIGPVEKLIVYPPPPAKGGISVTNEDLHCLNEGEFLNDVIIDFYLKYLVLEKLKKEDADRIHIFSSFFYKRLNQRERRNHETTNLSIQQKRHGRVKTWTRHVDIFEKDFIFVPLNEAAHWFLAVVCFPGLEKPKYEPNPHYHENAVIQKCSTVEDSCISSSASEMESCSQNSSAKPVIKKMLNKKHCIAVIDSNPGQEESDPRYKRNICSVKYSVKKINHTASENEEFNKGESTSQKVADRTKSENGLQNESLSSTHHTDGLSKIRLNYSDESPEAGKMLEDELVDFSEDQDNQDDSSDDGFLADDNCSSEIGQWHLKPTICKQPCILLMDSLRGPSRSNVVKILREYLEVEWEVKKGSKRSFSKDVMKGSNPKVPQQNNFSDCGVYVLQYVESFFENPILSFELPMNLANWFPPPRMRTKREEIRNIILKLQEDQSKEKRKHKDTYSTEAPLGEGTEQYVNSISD
The test is classed as functional.

The nature of test [7]: Trypanosoma cruzi growth suppression in host cells – NIH3T3 host cells, beta-gal luminescence, confirmation (AID 2044).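 Further: intracellular parasites grown in NIH/3T3 mouse fibroblasts as host cells; luminescent beta-galactosidase reporter signal from transgenic T. cruzi replicating inside host cells; inhibitors lower the luminescence signal.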 The test is classed as functional, cell-based.
Test [8] can be described thus: NIH3T3 cell viability loss – ATP luminescence, mouse fibroblasts, counter-screen, dose response (AID 2010).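 Further: cells exposed to compound for about 90 hours before reading.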 The test is classed as functional, cell-based. (Counterscreens check selectivity or assay interference.)
Test [9] has as its target T6, Corticotropin-releasing factor receptor 2/Corticotropin-releasing factor-binding protein (Homo sapiens, UniProt P24387+Q13324).
T6 sequence (Q13324 whole entry): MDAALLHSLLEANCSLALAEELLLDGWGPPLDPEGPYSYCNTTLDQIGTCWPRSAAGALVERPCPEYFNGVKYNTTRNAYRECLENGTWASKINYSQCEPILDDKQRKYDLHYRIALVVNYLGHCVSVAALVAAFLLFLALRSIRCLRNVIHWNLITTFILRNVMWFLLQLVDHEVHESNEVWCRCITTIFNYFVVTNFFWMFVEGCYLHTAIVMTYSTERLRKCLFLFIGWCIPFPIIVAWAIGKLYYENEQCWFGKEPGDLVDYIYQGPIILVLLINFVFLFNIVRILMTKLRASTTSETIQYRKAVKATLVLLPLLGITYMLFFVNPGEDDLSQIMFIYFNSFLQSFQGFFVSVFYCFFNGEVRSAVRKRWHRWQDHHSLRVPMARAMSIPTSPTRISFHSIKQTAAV
T6 sequence (P24387 whole entry): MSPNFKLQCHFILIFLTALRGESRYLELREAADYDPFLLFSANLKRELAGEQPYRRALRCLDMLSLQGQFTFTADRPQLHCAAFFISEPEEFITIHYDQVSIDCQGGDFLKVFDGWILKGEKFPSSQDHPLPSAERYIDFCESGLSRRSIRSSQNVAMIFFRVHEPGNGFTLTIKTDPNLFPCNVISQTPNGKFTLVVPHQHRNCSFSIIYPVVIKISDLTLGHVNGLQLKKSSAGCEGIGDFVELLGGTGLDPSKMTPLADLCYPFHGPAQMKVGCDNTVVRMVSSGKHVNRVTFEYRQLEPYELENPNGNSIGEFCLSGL
The test is described as follows: Dose Response confirmation of uHTS hits for small molecule antagonists of the CRF-binding protein and CRF-R2 receptor complex. The following applies: read-out: IC50_Mean. The test is classed as functional.

In test [10] the target is T6, Corticotropin-releasing factor receptor 2/Corticotropin-releasing factor-binding protein. The test is described as follows: activators of CRF receptor 2 with binding protein – uHTS hits, confirmation (AID 602473). The test is classed as functional. Conditions: read-out: EC50_Mean.

In the case of `CCn1c(N=NO)nc2ccccc21`, in the test with INS1, the AC50 is 1.83 µM (active). Besides, the EC50 in [1] was 21.9 µM (active); in test [2], > 38 µM (not active).
With `O=C(COC(=O)c1ccc(Br)o1)NCCCc1ccccc1`, the IC50 in “cells” is 38.5 µM (active).
As for `Cc1sc2ncnc(SCC(=O)Nc3ncccc3O)c2c1C`, the IC50 in test [3] was 5.35 µM (active).
For the compound `O=C(OCC(=O)N1CCCC1)c1cc(Br)ccc1Cl`, the IC50 in the test “cells” is 22 µM (active).
For `CNC(=S)Nc1ccc(-c2nc3ccc(C)cc3s2)cc1`, the IC50 on Caspase-3 is 7.31 µM (active); in test [4] it was 3.62 µM (active); in test [5], 5.47 µM (active); in test [6], 5.18 µM (active).
In the same order, the values of `Cc1cccc(-c2noc(-c3c(C)noc3C)n2)c1` are 29.8 µM (active), 6.22 µM (active), > 100 µM (inactive) and > 100 µM (inactive).
For `CCC1CCc2sc(C(=O)NNC(=O)c3ccncc3)cc2C1` (stereo unspecified), the IC50 in the test “cells” is 21.6 µM (active).
In the case of `Cc1csc(NC(=O)c2ccc(Br)s2)n1`, the IC50 on Caspase-3 was 14 µM (active); in test [4], 7.6 µM (active); in test [5], 27.4 µM (active); in test [6], 24.9 µM (active).
Take `CC(C)(C)C1CCC(OC(=O)C[N+]2(C)CCCCC2)CC1` (stereo unspecified): the values for the EC50 in [1] and in test [2] were 18.1 µM (active) and > 38 µM (not active), respectively.
Consider `O=C(NCc1cccnc1)c1ccc(-c2cccc(Cl)c2Cl)o1`, for which the EC50 in test [7] was 0.92 µM (active); in [1] it was > 38 µM (inactive); in test [8], > 60 µM (not active); in test [2], > 38 µM (not active).
For the compound `Cc1cccc(NC(=O)CN2C(=O)S/C(=C\c3ccc(-c4cccc(C(=O)O)c4C)o3)C2=O)c1`, the IC50 in [3] was 3.95 µM (active).
Regarding `CSc1nc2ccc(NC(=O)C3CC(=O)N(Cc4ccccc4)C3)cc2s1` (stereo unspecified), the IC50 in “cells” is 11.4 µM (active).
Take `Cc1ccc(-c2c(NCCc3ccccc3)c(=O)c2=O)cc1`: the IC50 in test [3] was 9.66 µM (active).
On the same count and under the same terms, with `O=C(CCS(=O)(=O)c1ccc(Br)cc1)NCCc1ccccc1` the figure was 26.3 µM (active).
Consider `Cc1cccc(N2C(N)=NC(N)=NC23CCCCC3)c1`, for which the IC50 in test [9] was > 47.1 µM (inactive). Also, the EC50 in test [10] was > 53 µM (inactive).
In the same order, the values of `Cc1cc(C)cc(NC(=O)Cn2nnc(C(=O)NCc3ccc(F)cc3)c2N)c1` are > 47.1 µM (inactive) and > 53 µM (inactive).
For `CCCNC(=O)C1CC(=O)N(c2ccc(OCC)cc2)C1` (stereo unspecified), the IC50 in [9] is > 47.1 µM (inactive). Besides, the EC50 in test [10] was > 53 µM (inactive).
`CCO[C@@H]1OC(C(N)=O)=C[C@H](C(C)(C)C)[C@H]1CCCO`: in test [9], the IC50 is > 47.1 µM (inactive). The EC50 in [10] is > 53 µM (inactive).
As for `COc1cc(C(=O)O)c2ccccc2n1`, the IC50 in test [9] is < 0.368 µM (active). Besides, the EC50 in test [10] was > 53 µM (inactive).
Taken in the same sequence, the figures for `CC[C@]12c3[nH]c4ccc(OC)cc4c3CCN1C(=O)C(CC(=O)NCCCOC)C[C@@H]2C(=O)N1CCN(C(=O)c2ccco2)CC1` (stereo partly specified) were > 47.1 µM (inactive) and > 53 µM (inactive).
Take `O=C(N/N=C/C=C/c1ccco1)c1ccncc1`: the IC50 in the test “cells” is 1.31 µM (active).
With `Cc1ccc(Cn2ccs/c2=N\C(=O)COC(=O)c2ccc(O)cc2O)cc1`, the IC50 at Caspase-3 was 37.1 µM (active); in test [4], 7.79 µM (active); in test [5] it was > 100 µM (inactive); in [6], 10.6 µM (active).
